# US20230095199A1, “DIMETHYL SULFOXIDE (DMSO) FORMULATIONS FOR TREATING AUTISM” (Abela Pharmaceuticals, Inc., priority 2010, published 2023)
# Entries after “also recorded” stand apart in the source; their conditions may differ.
# Tested on: patient, diagnosed with an autism spectrum disorder
# Experiment: Case treatment of a patient with autism spectrum disorder with oral MSM and/or DMSO
# Format: in vivo
# Method: A patient, diagnosed with an autism spectrum disorder, was treated with a combination of MSM and DMSO, beginning. […] In some embodiments, combination of MSM and DMSO unexpectedly improve one or more symptoms associated with autism, as compared to administration of MSM or DMSO individually. In several embodiments, in addition to the beneficial therapeutic effects, the combination of MSM and DMSO reduces one or more of the side effects typically associated with DMSO administration (e.g., odor, gastrointestinal distress). In some embodiments, these unexpected effects are the result of the continued (e.g., daily) administration of MSM/DMSO, while in other embodiments, these effects are long-term (e.g., persist beyond the period of continued administration of MSM/DMSO). Moreover, in certain embodiments, combinations of MSM and DMSO result in synergistic therapeutic effects for one or more of the symptoms of autism. In some embodiments, these synergistic effects are the result of the continued (e.g., daily) administration of MSM/DMSO, while in other embodiments, these effects are long-term (e.g., persist beyond the period of continued administration of MSM/DMSO).
# The patient's symptoms include stimming, nighttime stimming, hyperactive gag reflex, impaired social interaction, a lack of vocalization and communication, delayed success with toilet training, and constipation. DMSO/MSM treatment was initiated for patient. The patient was treated with 4.7 grams of oral MSM solution daily (4½ teaspoons daily of a 15% solution). […] The patient was also treated with 4.7 grams of MSM and 0.025 grams of DMSO in an oral solution (4½ teaspoons daily of 15% MSM and 0.1% DMSO).
# The patient was also treated with two short term bolus treatments with increased amounts of DMSO. In addition to the 4.7 g of MSM and 0.025 g of DMSO in an oral solution, the patient received an additional 4.8 g/day of DMSO for a short duration of 10 days (1 teaspoon, 90% oral solution). […] The patient's chronic constipation was also eliminated during these treatment cycles of higher doses of DMSO.
# The patient was further treated with an oral formulation comprising 4.7 g of MSM and […] of DMSO. Improvements in communication, social interaction, and constipation continued at this dosage.
# [1] = additional 4.8 g/day DMSO (90% oral solution) for 10 days on top of 4.7 g MSM and 0.025 g DMSO
# [2] = after one month of 4.7 g MSM daily
smiles,measurement,setting,value
"C[S+](C)[O-] [DMSO, Dimethyl sulfoxide]",ability to vocalize,[1],improved dramatically
same,chronic constipation,[1],eliminated; also recorded: vastly improved
same,different words vocalized during a session,larger dose of DMSO for 10 days in addition to normal treatment,six
"CS(C)(=O)=O [MSM, Methylsulfonylmethane]",frequency of nightly stimming,4.7 g MSM daily (15% solution),reduced from every night to once every two or three weeks
same,time until improvement of stimming was noted,4.7 g MSM daily (15% solution),≤ 12 weeks
same,reduction of daytime stimming,4.7 g oral MSM daily (15% solution),about 80%
same,incidents of hyperactive gag reflex,"4.7 g oral MSM daily (15% solution), within 12 weeks",reduced from multiple times per day to only a few times per month
same,reduction of stimming (especially night-time stimming),"4.7 g oral MSM daily (15% solution, 4½ teaspoons), within 12 weeks",about 90%
same,signs known,[2],gained an additional sign
same,time engaged in an activity,[2],8 to 10 min
same,vocalization,[2],became more vocal
